The values that follow come from patent publication US7279338B2, “Methods for determining cellular response to stimuli” (Cargill, Incorporated, priority 2004, dated 2007).

Where two headings read alike, the source gives them in different places.

Test [1] has as its system taste bud cells in porcine taste tissue. Kind of test: Multiphoton fluorescence intensity imaging of stimulated porcine taste tissue in flowing perfusing medium. The class given is cell-based.
Procedure: Two papillae in close proximity to one another were loaded in this manner. The papillae were extracted from the larger piece of tissue and placed into the open chamber configuration (this work was done prior to that using the closed, gasketed chamber). The tissue was repeatedly stimulated with 20 mmol/L citric acid using the 1.0 mL/min flow rate and 1.0 mL sample loop, switched to the load position as time series data acquisition began. The imaging parameters were as follows: 400 Hz galvo scan rate, 2× zoom with 63× objective, 256×256 pixel image format, 2× frame average, 810 nm laser at 36%, and 0.5 Hz frame scan rate. The tissue was received at approximately 8:00 am, transported in oxygenated Tyrode's solution to the lab, loaded at approximately 10:00 am and imaged at approximately 11:00 am. Cells from two adjacent taste buds within the second papilla were imaged in xyzt mode at a depth of approximately 35 micrometers. […] The time series data were processed using the alignment tools development to address the tissue movement issues. […] However, the movement in this case was primarily in the x-y plane, and therefore the alignment algorithm provided sufficient alignment. […] However, the relative difference in emission and differences in slope due to photobleaching makes comparison between cells difficult. […]
Test [2] deals with taste cells in porcine taste tissue (fungiform papilla taste bud). In words: Multiphoton fluorescence lifetime imaging (MP-FLIM) of stimulated porcine taste tissue in static bath. The format is cell-based. As to conditions: for response of taste cells to stimuli (calcium green lifetime imaging): bulk addition: 0.5 mL of 25-micromolar cycloheximide, then 0.5 mL of 1-millimolar sucralose, in deionized water. The source says: Fresh porcine taste tissue was procured in the prescribed manner from a local slaughterhouse and transported, after removal from the tongue, in chilled, oxygenated Tyrode's solution to the preparation laboratory. The tissue was affixed to a coated Petri dish and taste buds iontophoretically loaded (1.0 microampere) with calcium green dextran dye (1 mmol/L in DI water) via a drawn capillary pipette. Several taste pores were loaded on a papilla, with several papillae loaded overall, providing 3-5 taste buds loaded with dye. The tissue was mounted in a chamber and placed onto the microscope stage. The sample was imaged using the 63× water-dipping objective, 60% laser power at 810-nm excitation, in xzy mode (256×256 pixels) in order to image the taste bud and surface features at once in a longitudinal section. The photomultiplier tube gain on the FLIM system was set to 85% and the initial Leica settings (non-optimized) were used to capture FLIM images of the tissue over a 10-15 minute time course.
The same field of view was then imaged using the multiphoton lifetime imaging capability of the instrument. The optical conditions for lifetime mage collection are identical to intensity-based imaging, except that in photon counting mode the collection requires 30 seconds in this case for adequate signal to noise. The lifetimes were calculated by a double exponential fit of the decay curves and color-coded based on average lifetime per pixel. Red values are shorter lifetimes in this case. […] The shortest lifetime evident in this image is associated with the apical end of the taste cell directly below the pore. At rest, the average lifetime for all of the cells in the field of view is 1,634 picoseconds. The short lifetime component of the fit was set to 350 picoseconds, an estimate of the short lifetime component based on initial calcium calibrations in order to facilitate rapid fitting of the data for comparison.
The taste bud was exposed to several gross stimuli: cycloheximide and sucralose in deionized water. The purpose of this stimulus experiment was to determine if the bud would remain viable during the time course of a stimulus and if possible, to determine the presence of a gross response via lifetime imaging. The stimulants were applied via bulk addition to the chamber holding the tissue: 0.5 mL of 25-micromolar cycloheximide was first added after removal of 1 mL buffer; 0.5 mL of 1 -millimolar sucralose added after the cycloheximide stimulus and removal of additional 1 mL buffer. The MP-FLIM image data were collected at approximately 1-minute intervals using the same optical and exposure conditions used to generate the resting image described above. […]

Test [3] is described as follows: Calcium green-1 dextran dissociation constant from MP-FLIM lifetime and intensity data in CaEGTA calcium buffers. The format is binding. The method, then:
Calcium buffers (CaEGTA) and calcium green-1 dextran (CaGD) were purchased from Molecular Probes. The calcium buffers provide free Ca^+2 over a nanomolar to millimolar concentration range in a matrix closely matching the pH and ionic strength of the cytosol. The lifetimes and relative contributions of these bound and unbound decays are determined by fitting multi-exponential curves to the instrumental data. Buffer kit #2 (0-39 micromoles/L free Ca^+2) was used in this work to determine the response of calcium green dextran to low calcium concentrations. Initial work was done with Buffer kit #3, but the range of free Ca^+2 (0-1000 micromoles/L) was too high for the dye chosen. Calcium ion concentration is approximately 0.1 micromoles/L in resting cell's cytoplasm and in the increases to the micromolar range upon stimulus (Pollard, 2002).
Samples were analyzed in a random order during each experiment using the MP-FLIM system and a quartz solution cell. […] Each sample produced two full fields of view (256×256) where each image pixel contains a decay curve. As the calcium green dextran was present in bound and unbound forms, double exponential fits were performed using SPCImage (version 2.7.7238.0). The double exponential decays were calculated for each sample on the entire field of view, generating 65,536 values for each field of view. The average decay for each field of view was calculated as a sum of the per pixel lifetime values weighted by the amplitudes (contributions) of each lifetime to each pixel. Table 1 details the results for the calculation of the unbound dye fluorescence lifetime. The average τ1 from the measurements is 405.6 ps, with a sample standard variance of approximately 1.0 ps.
The balance of the calcium buffer data were analyzed using the SPCImage software under similar conditions as given in Table 1, with the exception that the short lifetime was fixed to 405.6 ps in the model parameters settings box. In addition, the zero Ca^+2 buffer average lifetimes were recalculated using the fixed short lifetime value. Due to instabilities in the software interface, the short lifetime was designated as τ2 in the fit parameters box. A second order polynomial fit of average lifetime in picoseconds versus calcium concentration in micromoles/L for a calcium concentration range from 0 to 0.602 micromoles/L yields the relationship: τavg=−3047 c^2+4472 c+601, R^2=0.9976; RMSE=30.9 ps.
A significant reported advantage of fluorescence lifetime measurements is that the dependence of fluorescence lifetime on calcium concentration is insensitive to dye concentration provided the dye itself is at low enough concentrations so as to not buffer the calcium ion in the cell or the cuvette. In order to test this property in the calcium green dextran system, additional sample sets were made up with 2.5-micromoles/L dye and 9.9-micromoles/L dye in the buffer solutions. The variations in lifetime data and intensity data with dye concentrations are given in FIG. 2 and FIG. 3, respectively. The lifetime data appears to be invariant with dye concentration, where the average standard deviation (variation in lifetime with dye concentration at each calcium concentration) for the lifetime data on the order or 25 ps. In contrast, the intensity variability is significant, where the intensity of the fluorescence is dependent upon the calcium concentration and the dye concentration.
Finally, calcium green-1 dissociation constants were calculated for the various dye concentrations using lifetime and intensity-based data sets.

The conditions of test [4]: read-out: KD for calcium; cited from earlier work.

With `O=C(O)CC(O)(CC(=O)O)C(=O)O` [citric acid], in test [1] (20 mmol/L citric acid, 1.0 mL/min flow, 1.0 mL sample loop, seven cells in field of view), the “baseline corrected average fluorescence intensity per cell (intracellular calcium response)” value is given as “strong response to the stimulus in cell 1 with lower magnitude responses in other cells”. Moreover, in test [1] (three successive 20 mmol/L citric acid stimuli, 5 minutes artificial saliva between stimuli), the “response to successive stimuli” value is “decrease in response to subsequent stimulus”.

On to `C[C@@H]1C[C@@H]([C@H](O)CC2CC(=O)NC(=O)C2)C(=O)[C@@H](C)C1` [cycloheximide], for which the “response of taste cells to stimuli (calcium green lifetime imaging)” value in test [2] is listed as “taste cells responded to the stimuli”.

On to `OC[C@H]1O[C@H](O[C@]2(CCl)O[C@H](CCl)[C@@H](O)[C@@H]2O)[C@H](O)[C@@H](O)[C@H]1Cl` [sucralose], for which the “calcium concentration surrounding the taste cells during stimulus” value in test [2] (0.5 mL of 1-millimolar sucralose, bulk addition) is “decreased”. Further, in test [2] (0.5 mL of 1-millimolar sucralose, bulk addition after cycloheximide stimulus, images at about 1-minute intervals), the “change of calcium green lifetime around the taste cells on stimulus” value is recorded as “significant shortening of the calcium green lifetime around the taste cells”. Moreover, the “response of taste cells to stimuli (calcium green lifetime imaging)” value in test [2] is “taste cells responded to the stimuli”.

By Kd is commonly meant the free concentration of one partner at which half of the binding sites on the other are occupied at equilibrium, for simple one-to-one binding. With calcium green-1 dextran, the Kd was 482 nM in test [3] (dye concentration 2.5 micromoles/L, read-out: Kd, Intensity Data); 342 nM in test [3] (dye concentration 2.5 micromoles/L, read-out: Kd, Lifetime Data); 520 nM in test [3] (dye concentration 5.0 micromoles/L, read-out: Kd, Intensity Data); 329 nM in test [3] (dye concentration 5.0 micromoles/L, read-out: Kd, Lifetime Data); 382 nM in test [3] (dye concentration 9.9 micromoles/L, read-out: Kd, Intensity Data); 290 nM in test [3] (dye concentration 9.9 micromoles/L, read-out: Kd, Lifetime Data). Moreover, in test [4], the Kd was approximately 540 nM.
